Assay results from PubChem BioAssay (NCI).
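GI50 is the concentration that inhibits growth by half. Definition used: TGI = concentration required for complete inhibition of growth.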

Legend:
Assay in all cases: NCI anticancer screen, dose series, 384-well format
[1] = tested on: UACC-62 melanoma
[2] = tested on: MALME-3M melanoma
[3] = tested on: HOP-62 NSCLC
[4] = tested on: NCI/ADR-RES ovarian
[5] = tested on: U251 glioblastoma
[6] = tested on: CAKI-1 renal
[7] = tested on: OVCAR-8 ovarian
[8] = tested on: NCI-H226 lung
[9] = tested on: HL-60(TB) leukemia
[10] = tested on: RPMI-8226 leukemia
[11] = tested on: MDA-MB-231 breast
[12] = tested on: KM12 colon
[13] = tested on: A549 NSCLC
[14] = tested on: NCI-H522 lung
[15] = tested on: DU-145 prostate
[16] = tested on: M14 melanoma
[17] = tested on: COLO 205 colon
[18] = tested on: NCI-H460 NSCLC
[19] = tested on: IGROV1 ovarian
[20] = tested on: ACHN renal
[21] = tested on: SN12C renal
[22] = tested on: TK-10 renal
[23] = tested on: 786-0 renal
[24] = tested on: RXF 393 renal
[25] = tested on: UACC-257 melanoma
[26] = tested on: OVCAR-5 ovarian
[27] = tested on: MCF7 breast
[28] = tested on: MDA-MB-468 breast
[29] = tested on: PC-3 prostate
[30] = tested on: HOP-92 NSCLC
[31] = tested on: SK-MEL-5 melanoma
[32] = tested on: T-47D breast
[33] = tested on: UO-31 renal
[34] = tested on: HT29 colon
[35] = tested on: HCT-116 colon
[36] = tested on: SK-MEL-28 melanoma
[37] = tested on: SR leukemia
[38] = tested on: BT-549 breast
[39] = tested on: MDA-MB-435 melanoma
[40] = tested on: OVCAR-3 ovarian
[41] = tested on: SF-539 CNS
[42] = tested on: HCC-2998 colon
[43] = tested on: OVCAR-4 ovarian
[44] = tested on: SK-OV-3 ovarian
[45] = tested on: A498 renal
[46] = tested on: HCT-15 colon
[47] = tested on: NCI-H322M lung
[48] = tested on: NCI-H23 lung
[49] = tested on: SF-295 CNS
[50] = tested on: SNB-19 CNS
[51] = tested on: SF-268 CNS
[52] = tested on: LOX IMVI melanoma
[53] = tested on: SK-MEL-2 melanoma
[54] = tested on: MOLT-4 leukemia
[55] = tested on: CCRF-CEM leukemia

Cc1cccc2c1NC(=O)[C@@H](NC(=O)[C@H](CCC(F)(F)F)[C@H](CCC(F)(F)F)C(N)=O)N=C2c1cccc(F)c1
GI50 [1]: 14900 nM
TGI [1]: > 100000 nM
GI50 [2]: 19200 nM
TGI [2]: 69700 nM
GI50 [3]: 20400 nM
TGI [3]: 49600 nM
GI50 [4]: 56300 nM
TGI [4]: > 100000 nM
GI50 [5]: 13700 nM
TGI [5]: 72900 nM
GI50 [6]: 13300 nM
TGI [6]: 26800 nM
GI50 [7]: 21500 nM
TGI [7]: 62500 nM
GI50 [8]: 17700 nM
TGI [8]: 75100 nM
GI50 [9]: 1610 nM
TGI [9]: 3050 nM
GI50 [10]: 5270 nM
TGI [10]: > 100000 nM
GI50 [11]: 15700 nM
TGI [11]: 92600 nM
GI50 [12]: > 100000 nM
TGI [12]: > 100000 nM
GI50 [13]: 31600 nM
TGI [13]: > 100000 nM
GI50 [14]: 8010 nM
TGI [14]: 26100 nM
GI50 [15]: 24600 nM
TGI [15]: > 100000 nM
GI50 [16]: 19700 nM
TGI [16]: > 100000 nM
GI50 [17]: 37500 nM
TGI [17]: > 100000 nM
GI50 [18]: 4080 nM
TGI [18]: > 100000 nM
GI50 [19]: 34100 nM
TGI [19]: > 100000 nM
GI50 [20]: 17900 nM
TGI [20]: 64500 nM
GI50 [21]: 70100 nM
TGI [21]: > 100000 nM
GI50 [22]: 38400 nM
TGI [22]: > 100000 nM
GI50 [23]: 22200 nM
TGI [23]: > 100000 nM
GI50 [24]: 5720 nM
TGI [24]: 22900 nM
GI50 [25]: 16300 nM
TGI [25]: 55000 nM
GI50 [26]: 37700 nM
TGI [26]: > 100000 nM
GI50 [27]: 12000 nM
TGI [27]: > 100000 nM
GI50 [28]: 13900 nM
TGI [28]: 92000 nM
GI50 [29]: > 100000 nM
TGI [29]: > 100000 nM
GI50 [30]: 16200 nM
TGI [30]: 49600 nM
GI50 [31]: 25300 nM
TGI [31]: > 100000 nM
GI50 [32]: 25200 nM
TGI [32]: > 100000 nM
GI50 [33]: 25600 nM
TGI [33]: 69500 nM
GI50 [34]: > 100000 nM
TGI [34]: > 100000 nM
GI50 [35]: 20100 nM
TGI [35]: > 100000 nM
GI50 [36]: 22500 nM
TGI [36]: 68000 nM
GI50 [37]: 1250 nM
TGI [37]: 2540 nM
GI50 [38]: 14700 nM
TGI [38]: 48300 nM
GI50 [39]: > 100000 nM
TGI [39]: > 100000 nM
GI50 [40]: 20000 nM
TGI [40]: > 100000 nM
GI50 [41]: 16300 nM
TGI [41]: 34100 nM
GI50 [42]: 25900 nM
TGI [42]: > 100000 nM
GI50 [43]: 18000 nM
TGI [43]: 40800 nM
GI50 [44]: 19300 nM
TGI [44]: 46800 nM
GI50 [45]: 7760 nM
TGI [45]: 51600 nM
GI50 [46]: > 100000 nM
TGI [46]: > 100000 nM
GI50 [47]: 46800 nM
TGI [47]: > 100000 nM
GI50 [48]: 26800 nM
TGI [48]: 82000 nM
GI50 [49]: 24300 nM
TGI [49]: 60000 nM
GI50 [50]: 37700 nM
TGI [50]: > 100000 nM
GI50 [51]: 17000 nM
TGI [51]: 41300 nM
GI50 [52]: > 100000 nM
TGI [52]: > 100000 nM
GI50 [53]: 16900 nM
TGI [53]: 58500 nM

COc1ncnn2ccc(-c3cnc4nc(C)n(Cc5nnc(C(C)F)o5)c4c3)c12 (stereo unspecified)
GI50 [1]: 24.9 nM
TGI [1]: 80.7 nM
GI50 [2]: 95.6 nM
TGI [2]: 223 nM
GI50 [3]: 27.5 nM
TGI [3]: 122 nM
GI50 [4]: 154 nM
TGI [4]: 415 nM
GI50 [5]: 43.2 nM
TGI [5]: 338 nM
GI50 [7]: 40.2 nM
TGI [7]: 256 nM
GI50 [8]: 117 nM
TGI [8]: 283 nM
GI50 [9]: 51.5 nM
TGI [9]: 156 nM
GI50 [10]: 40.5 nM
TGI [10]: 95.8 nM
GI50 [11]: 77.9 nM
TGI [11]: 415 nM
GI50 [12]: 24.8 nM
TGI [12]: 95.5 nM
GI50 [14]: 14.8 nM
TGI [14]: 52 nM
GI50 [16]: 185 nM
TGI [16]: 334 nM
GI50 [54]: 18.5 nM
TGI [54]: 33.4 nM
GI50 [17]: 26.8 nM
TGI [17]: 67.5 nM
GI50 [18]: 42.6 nM
TGI [18]: 163 nM
GI50 [19]: 26.5 nM
TGI [19]: 135 nM
GI50 [21]: 43.5 nM
TGI [21]: 215 nM
GI50 [22]: 44.7 nM
TGI [22]: 261 nM
GI50 [23]: 116 nM
TGI [23]: 252 nM
GI50 [24]: 56 nM
TGI [24]: 188 nM
GI50 [55]: 21.1 nM
TGI [55]: 41.9 nM
GI50 [25]: 20.1 nM
TGI [25]: 56.6 nM
GI50 [28]: 17.6 nM
TGI [28]: 43.4 nM
GI50 [31]: 15.4 nM
TGI [31]: 45 nM
GI50 [33]: 103 nM
TGI [33]: 270 nM
GI50 [34]: 142 nM
TGI [34]: 284 nM
GI50 [36]: 51.9 nM
TGI [36]: 184 nM
GI50 [37]: 15.5 nM
TGI [37]: 29.4 nM
GI50 [38]: 16.9 nM
TGI [38]: 49.9 nM
GI50 [39]: 67.3 nM
TGI [39]: 236 nM
GI50 [40]: 17.2 nM
TGI [40]: 41.4 nM
GI50 [41]: 126 nM
TGI [41]: 286 nM
GI50 [42]: 41.1 nM
TGI [42]: 196 nM
GI50 [43]: 57.2 nM
TGI [43]: 215 nM
GI50 [44]: 28.7 nM
TGI [44]: 132 nM
GI50 [45]: 42.6 nM
TGI [45]: 187 nM
GI50 [46]: 33 nM
TGI [46]: 147 nM
GI50 [47]: 82.2 nM
TGI [47]: 815 nM
GI50 [48]: 19.7 nM
TGI [48]: 46.9 nM
GI50 [49]: 110 nM
TGI [49]: 307 nM
GI50 [50]: 37.1 nM
TGI [50]: > 100000 nM
GI50 [51]: 133 nM
TGI [51]: 400 nM
GI50 [52]: 58.3 nM
TGI [52]: 161 nM
GI50 [53]: 29.4 nM
TGI [53]: 77.2 nM
